Measured values reported in paper PMC8011784, “Chronic peptide-based GIP receptor inhibition exhibits modest glucose metabolic changes in mice when administered either alone or combined with GLP-1 agonism” (PLoS ONE, 2021).

Tests used:
Type in all cases: in vivo, mouse
[1] = test system: DIO mice; experiment: Chronic GIPA-2 study: body weight and food intake in DIO mice; conditions: 28 days, HFD; liraglutide 0.2 mg/kg SC daily, GIPA-2 10 mg/kg SC daily; n = 10; vs vehicle (combination: vs liraglutide)
Experimental: (§1) For studying the chronic effects of GIPA-2, male C57BL/6JRj mice (n = 40) were fed a HFD (SSNIFF® diet #12492) for 43 weeks. DIO mice were randomized (n = 10 per group) based on baseline blood glucose and body weight. Liraglutide was dissolved in PBS plus 0.1% BSA (Vehicle1) and GIPA-2 in PBS (vehicle 2). Mice received one of the following four treatments daily for 28 days while still maintained on HFD: (1) vehicle 1 (SC) and vehicle 2 (SC); (2) 0.2 mg/kg liraglutide (SC) and vehicle 2; (3) vehicle 1 (SC) and 10 mg/kg GIPA-2 (SC); and (4) 0.2 mg/kg liraglutide (SC) plus 10 mg/kg GIPA-2 (SC). […] Fasted (4 hrs) blood glucose and insulin were measured on study day -4, 10 and 26. […] Blood glucose was measured before their daily dosing and at 0, 15, 30 60, 120, 180 and 240 min after glucose administration. […] Blood glucose was measured before their daily dosing and at 0, 15, 30 60, 120, 180 min after glucose administration. […]
(§2) Fig 2 Effects of chronic GIPR antagonism on body weight, food intake, and fasting blood glucose and insulin. […] Statistical analysis was calculated using two-way ANOVA with Tukey’s post-hoc test and one-way ANOVA for AUC with Dunnett’s post-hoc test. *: p< 0.05, **: p < 0.01, ***: p < 0.001, ****: p<0.0001 compared to vehicle.

[2] = test system: DIO mice; experiment: Chronic GIPA-2 study: OGTT in DIO mice; conditions: day 17; oral glucose 2 g/kg one hour after daily dose; liraglutide 0.2 mg/kg SC, GIPA-2 10 mg/kg SC; n = 10
Experimental: as §1
(§3) Fig 3 Effects of GIPA-1 and GIPA-2 on oral glucose tolerance and insulin responses in DIO mice. […] Statistical analysis was calculated using two-way ANOVA with Tukey’s post-hoc test and one-way ANOVA with Dunnett’s post-hoc test. *: p< 0.05, **: p < 0.01, ***: p < 0.001, ****: p<0.0001 compared to vehicle.

[3] = test system: DIO mice; experiment: Chronic GIPA-1 study: body weight and food intake in DIO mice; conditions: 28 days, HFD; liraglutide 0.2 mg/kg/day SC, GIPA-1 ~4.5 mg/kg/day osmotic minipump; n = 10; vs vehicle (combination: vs liraglutide)
Experimental: (§4) 23-week-old male C57BL/6JRj mice (n = 40), fed a HFD (SSNIFF® diet #12492[60% fat, 20% protein, 20% carbohydrate]) for 14 weeks, were distributed into 4 test groups and received daily either vehicle, liraglutide (0.2 mg/kg/day), GIPA-1 (~4.5 mg/kg/day) or liraglutide + GIPA-1 for 4 weeks while still maintained on HFD. GIPA-1 was delivered using minipumps in order to achieve sufficient GIPR antagonism based on the properties of this peptide (Fig 2A). Liraglutide was dissolved in phosphate-buffered saline (PBS) plus 0.1% bovine serum albumin (BSA) (vehicle 1) and GIPA-1 in DMSO/propylene glycol (50/50 volume per volume) (vehicle 2). 100 μL minipumps (Alzet) were filled with GIPA-1 (30 mg/mL) or vehicle 2 and kept in 0.9% saline at 37°C overnight. […] Fasted (4 hrs) blood glucose and insulin levels were measured on study day -3, 14 and 27. […] Blood glucose was measured before their daily dosing and at 0, 15, 30 60, 120, 180 min after glucose administration. Plasma insulin was measured at 0 and 15 min. Whole body weight and food intake were measured throughout the study period. […]
as §2

[4] = test system: DIO mice; experiment: Chronic GIPA-1 study: OGTT and insulin responses in DIO mice; conditions: n = 10
Experimental: as §4, with “overnight. The minipump was placed subcutaneously through a 1-cm long incision in the neck with the animal under isoflurane anesthesia. Animals were treated with analgesics on day 0–3 (NSAID, carprofen 50 mg/kg SC QD).” for “overnight.”
as §3

Substance: liraglutide
- body weight [1]: reduced both body weight and food intake
- cumulative food intake [1]: reduced both body weight and food intake
- glucose excursion in OGTT [2]: beneficial glucose lowering effects of liraglutide
- body weight [3]: reduced both body weight and food intake
- cumulative food intake [3]: reduced both body weight and food intake
- insulin at time 0 of the OGTT ([4]; day 21, fasted, GIPA-1 study): liraglutide-induced decrement in insulin at time 0 of the OGTT
- baseline blood glucose (-30 min) of OGTT ([4]; day 21, GIPA-1 study): lower in the liraglutide group and in the combination group
- glucose excursion in OGTT ([4]; day 21, oral glucose 2 g/kg, liraglutide 0.2 mg/kg SC, GIPA-1 ~4.5 mg/kg/day minipump): beneficial glucose lowering effects of liraglutide
